Reference: patent publication US9290476B2, “Methylene linked quinolinyl modulators of RORγt” (Janssen Pharmaceutica NV, priority 2012, dated 2016)
Where “and” joins values, the source holds several entries; their conditions need not be identical. Identical values can stand only once. Counter-ions that a name gives are not always drawn. Like-named read-outs stand apart in the source and are kept apart here.

Columns and labels:
[1] = system: IL-17 production by CD4 T cells; assay: Human Th17 assay (IL-17 production by CD4 T cells under Th17 differentiation); assay type: cell-based; conditions: human CD4+ T cells, IL-17 after 3 days, read-out: Human Th17 Assay, IC50 μM
Summary of the method: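 Healthy-donor peripheral CD4+ T cells (1.5×10^5/well) preincubated 1 h with titrated compound (0.2% DMSO), then differentiated with anti-CD3/CD28 beads, anti-IL4, anti-IFNγ, IL1β, IL23, IL6, TGFβ and IL2 for 3 days at 37 °C. Supernatant IL-17 quantified by MSD electrochemiluminescence against a standard curve; IC50 fitted.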

[2] = biological target: human RORγt LBD (Homo sapiens (Human), UniProt P51449); assay: RORγt reporter assay (GAL4-RORγt LBD luciferase in HEK293T cells); assay type: cell-based; conditions: for RORγt reporter Assay, % inhibition @ 6 μM / IC50: HEK293T cells; for IC50: 24 hours compound treatment; for inhibition at 6 µM: HEK-293T, read-out: RORγt reporter Assay, % inhibition @ 6 μM, HEK293T cells, 6 μM
Chain of human RORγt LBD (P51449 258-518): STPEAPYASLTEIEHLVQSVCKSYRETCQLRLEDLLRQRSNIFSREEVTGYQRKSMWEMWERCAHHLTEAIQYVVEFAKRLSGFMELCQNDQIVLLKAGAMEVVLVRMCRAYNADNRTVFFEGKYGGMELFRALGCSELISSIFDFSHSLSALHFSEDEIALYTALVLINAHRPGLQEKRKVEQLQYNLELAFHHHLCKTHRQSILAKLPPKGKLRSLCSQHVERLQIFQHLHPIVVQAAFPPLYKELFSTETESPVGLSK
Summary of the method: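 HEK293T cells transiently co-transfected with GAL4-DBD–wild-type human RORγt LBD (pBIND) and GAL4-responsive firefly luciferase reporter (pGL4.31); renilla luciferase from pBIND normalises transfection/viability. Cells in phenol-red-free DMEM, 5% lipid-reduced FCS, treated with compound 24 h. Firefly/renilla ratio plotted against compound concentration.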

[3] = biological target: human RORγt ligand binding domain (RORγt LBD) (Homo sapiens (Human), UniProt P51449); assay: RORγt ThermoFluor assay (thermal shift binding affinity); conditions: estimated from thermal shift
Chain of human RORγt ligand binding domain (RORγt LBD) (P51449 other isoform, or with tags, fused parts or gaps): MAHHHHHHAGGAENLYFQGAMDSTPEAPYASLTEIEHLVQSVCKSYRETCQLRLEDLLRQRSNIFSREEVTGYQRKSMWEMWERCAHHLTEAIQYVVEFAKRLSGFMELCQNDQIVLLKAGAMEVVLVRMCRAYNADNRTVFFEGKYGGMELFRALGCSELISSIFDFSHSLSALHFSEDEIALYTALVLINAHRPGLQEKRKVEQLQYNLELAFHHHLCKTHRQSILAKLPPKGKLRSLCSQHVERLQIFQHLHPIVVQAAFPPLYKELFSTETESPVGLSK
Summary of the method: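 Thermal shift used 0.065 mg/mL RORγt LBD with 60 μM 1,8-ANS in 100 mM Hepes pH 7.0, 10 mM NaCl, 2.5 mM GSH and 0.002% Tween-20, heated at 1 °C/min. Fluorescence was excited at 380–400 nm and emission read at 500 nm.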

Compound | IC50 [1] | RORγt reporter Assay, % inhibition @ 6 μM [2] | IC50 [2] | Kd [3] | IC50 ([1]; Homo sapiens, CD4+ T, 72 h) | inhibition at 6 µM [2]
COc1ccc(C(O)(c2cccnc2)c2ccc3nc(Cl)c(Cc4ccc(-n5cccn5)cc4)c(Cl)c3c2)cc1 (stereo not shown) [Example 47, (3-(4-(1H-Pyrazol-1-yl)benzyl)-2,4-dichloroquinolin-6-yl)(4-methoxyphenyl)(pyridin-3-yl)methanol] | – | – | 0.17 µM | 140 nM | 0.18 µM | 102%
CCc1nc2ccc(C(O)(c3cnnn3C)C3CN(C(C)=O)C3)cc2c(Cl)c1Cc1ccc(C(F)(F)F)cc1 (single isomer, unassigned) [Example 90C, 1-(3-((4-Chloro-2-ethyl-3-(4-(trifluoromethyl)benzyl)quinolin-6-yl)(hydroxy)(1-methyl-1H-1,2,3-triazol-5-yl)methyl)azetidin-1-yl)ethanone] | 0.0061 µM | 98% | 0.0054 µM | 0.32 nM | – | –
Cc1ccc(C(O)(c2ccc3nc(C#N)c(Cc4ccc(C(F)(F)F)cc4)c(C#N)c3c2)c2cnnn2C)c(C)n1 (single isomer, unassigned) [Example 88C, 6-((2,6-Dimethylpyridin-3-yl)(hydroxy)(1-methyl-1H-1,2,3-triazol-5-yl)methyl)-3-(4-(trifluoromethyl)benzyl)quinoline-2,4-dicarbonitrile] | – | 95% | 0.0088 µM | 0.04 nM | 0.0028 µM | –
COc1nc2ccc(C(O)(c3sc(C)nc3C)c3cnnn3C)cc2c(Cl)c1Cc1ccc(C(F)(F)F)cc1 (single isomer, unassigned) [Example 79B, (4-Chloro-2-methoxy-3-(4-(trifluoromethyl)benzyl)quinolin-6-yl)(2,4-dimethylthiazol-5-yl)(1-methyl-1H-1,2,3-triazol-5-yl)methanol] | – | – | 0.038 µM | 57 nM | 0.052 µM | 99%
COc1nc2ccc(C(O)(c3cnnn3C)c3cnc(C)n3C)cc2c(C#N)c1Cc1ccc(C(F)(F)F)cc1 (single isomer, unassigned) [Example 81B, 6-((1,2-Dimethyl-1H-imidazol-5-yl)(hydroxy)(1-methyl-1H-1,2,3-triazol-5-yl)methyl)-2-methoxy-3-(4-(trifluoromethyl)benzyl)quinoline-4-carbonitrile] | – | – | 0.002 µM and ~0.0002 µM | 0.05 nM | 0.0022 µM | 104%
COc1ccc(C(O)(c2ccc3nc(OC)c(Cc4ccc(-n5cccn5)cc4)c(Cl)c3c2)c2cncn2C)cn1 (stereo not shown) [Example 22, (3-(4-(1H-Pyrazol-1-yl)benzyl)-4-chloro-2-methoxyquinolin-6-yl)(6-methoxypyridin-3-yl)(1-methyl-1H-imidazol-5-yl)methanol.TFA] | – | – | 0.091 µM | 2.8 nM | 0.016 µM | 96%
CON(C)c1nc2ccc(C(O)(c3ccc(C(F)(F)F)nc3)c3cncn3C)cc2c(Cl)c1Cc1ccc(-n2cccn2)cc1 (single isomer, unassigned) [Example 67C, (3-(4-(1H-pyrazol-1-yl)benzyl)-4-chloro-2-(methoxy(methyl)amino)quinolin-6-yl)(1-methyl-1H-imidazol-5-yl)(6-(trifluoromethyl)pyridin-3-yl)methanol] | 0.1 µM | 101% | 0.12 µM | 57 nM | – | –
Cn1cncc1C(O)(c1ccc(C(F)(F)F)nc1)c1ccc2nc(N3CCC3)c(Cc3ccc(-n4cccn4)cc3)c(Cl)c2c1 (single isomer, unassigned) [Example 68B, (3-(4-(1H-pyrazol-1-yl)benzyl)-2-(azetidin-1-yl)-4-chloroquinolin-6-yl)(1-methyl-1H-imidazol-5-yl)(6-(trifluoromethyl)pyridin-3-yl)methanol] | 0.01 µM | – | ~0.05 µM | 2.1 nM | – | 96%
CN(C)c1ccc(C(O)(c2ccc3nc(Cl)c(Cc4ccc(-n5cccn5)cc4)c(Cl)c3c2)c2cncn2C)cc1 (stereo not shown) [Example 25, (3-(4-(1H-Pyrazol-1-yl)benzyl)-2,4-dichloroquinolin-6-yl)(4-(dimethylamino)phenyl)(1-methyl-1H-imidazol-5-yl)methanol.TFA] | – | – | 0.33 µM | 440 nM | 0.38 µM | 87%
COc1nc2ccc(C(O)(c3ccc(C(F)(F)F)nc3)c3cncn3C)cc2c(Cl)c1Cc1ccc(C(F)(F)F)nc1 (single isomer, unassigned) [Example 94B, (4-Chloro-2-methoxy-3-((6-(trifluoromethyl)pyridin-3-yl)methyl)quinolin-6-yl)(1-methyl-1H-imidazol-5-yl)(6-(trifluoromethyl)pyridin-3-yl)methanol] | 1.9 µM | – | 0.21 µM | 98 nM | – | 96%
COc1nc2ccc(C(O)(c3ccc(C(F)(F)F)nc3)c3cncn3C)cc2c(Cl)c1Cc1cc2ccccc2s1 (single isomer, unassigned) [Example 37B, (3-(benzo[b]thiophen-2-ylmethyl)-4-chloro-2-methoxyquinolin-6-yl)(1-methyl-1H-imidazol-5-yl)(6-(trifluoromethyl)pyridin-3-yl)methanol] | – | – | 0.16 µM | 44 nM | 0.11 µM | 99%

Results, then the compound that gave them:

IC50 [1] | RORγt reporter Assay, % inhibition @ 6 μM [2] | IC50 [2] | Kd [3] | IC50 ([1]; Homo sapiens, CD4+ T, 72 h) | inhibition at 6 µM [2] | Compound
0.069 µM | 102% | 0.06 µM | 5.3 nM | – | – | COc1ccc(C(O)(c2ccc3nc(OC)c(Cc4ccc(-n5cccn5)cc4)c(Cl)c3c2)c2cncs2)cn1 (single isomer, unassigned) [Example 20C, (3-(4-(1H-pyrazol-1-yl)benzyl)-4-chloro-2-methoxyquinolin-6-yl)(6-methoxypyridin-3-yl)(thiazol-5-yl)methanol]
0.02 µM | – | 0.046 µM | 4.5 nM | – | 97% | COc1nc2ccc(C(O)(c3ccc(C(F)(F)F)nc3)c3cncn3C)cc2c(C#N)c1Cc1ccc(-n2cccn2)cc1 (single isomer, unassigned) [Example 73B, 3-(4-(1H-Pyrazol-1-yl)benzyl)-6-(hydroxy(1-methyl-1H-imidazol-5-yl)(6-(trifluoromethyl)pyridin-3-yl)methyl)-2-methoxyquinoline-4-carbonitrile]
– | – | 0.16 µM | 75 nM | 0.3 µM | 104% | Cn1cncc1C(O)(c1ccc(Cl)cc1)c1ccc2nc(Cl)c(Cc3ccc(-n4cccn4)cc3)c(Cl)c2c1 (stereo not shown) [Example 11, (3-(4-(1H-Pyrazol-1-yl)benzyl)-2,4-dichloroquinolin-6-yl)(4-chlorophenyl)(1-methyl-1H-imidazol-5-yl)methanol.TFA]
– | – | 0.46 µM | 250 nM | 1.8 µM | 101% | COc1nc2ccc(C(O)(c3ccc(Cl)cc3)c3cncn3C)cc2c(OC)c1Cc1ccc(-n2cccn2)cc1 (stereo not shown) [Example 34, (3-(4-(1H-Pyrazol-1-yl)benzyl)-2,4-dimethoxyquinolin-6-yl)(4-chlorophenyl)(1-methyl-1H-imidazol-5-yl)methanol.TFA]
0.09 µM | 97% | 0.081 µM | 4.9 nM | – | – | COc1nc2c(C)cc(C(O)(c3ccc(C(F)(F)F)nc3)c3cncn3C)cc2c(Cl)c1Cc1ccc(-n2cccn2)cc1 (single isomer, unassigned) [Example 29C, (3-(4-(1H-pyrazol-1-yl)benzyl)-4-chloro-2-methoxy-8-methylquinolin-6-yl)(1-methyl-1H-imidazol-5-yl)(6-(trifluoromethyl)pyridin-3-yl)methanol]
0.034 µM | – | 0.1 µM | 12 nM | – | 96% | Cn1cncc1C(O)(c1ccc(C(F)(F)F)nc1)c1ccc2nc(N3CCC3)c(Cc3ccc(C(F)(F)F)cc3)c(Cl)c2c1 (single isomer, unassigned) [Example 92B, (2-(Azetidin-1-yl)-4-chloro-3-(4-(trifluoromethyl)benzyl)quinolin-6-yl)(1-methyl-1H-imidazol-5-yl)(6-(trifluoromethyl)pyridin-3-yl)methanol]
– | – | 0.29 µM | 85 nM | 0.3 µM | 97% | Cc1cc(C(O)(c2ccc(Cl)cc2)c2cncn2C)cc2c(Cl)c(Cc3ccc(-n4cccn4)cc3)c(Cl)nc12 (stereo not shown) [Example 85, (3-(4-(1H-Pyrazol-1-yl)benzyl)-2,4-dichloro-8-methylquinolin-6-yl)(4-chlorophenyl)(1-methyl-1H-imidazol-5-yl)methanol]
– | – | 0.014 µM | 4 nM | 0.15 µM | 95% | Cn1cncc1C(O)(c1ccc(C(F)(F)F)nc1)c1ccc2nc(Cl)c(Cc3ccc(-n4cccn4)cc3)c(Cl)c2c1 (stereo not shown) [Example 23, (3-(4-(1H-Pyrazol-1-yl)benzyl)-2,4-dichloroquinolin-6-yl)(1-methyl-1H-imidazol-5-yl)(6-(trifluoromethyl)pyridin-3-yl)methanol.TFA]
